# Source: US12509460B2 (Skyhawk Therapeutics, Inc., priority 2019, dated 2025)
# Like-named read-outs stand apart in the source and are kept apart here.
# Assays:
# [1] = tested on: MDR1-MDCK cell monolayers; test: Blood-brain-barrier (BBB) penetration potential via MDCK-MDR1 permeability assay
# MDR1 (P-gp) = test: as above; conditions: dog; for efflux ratio at 120 min, 5 μM: MDCK-MDR1, pH 7.4, MDCK-MDR1: Efflux; for Papp A→B at 120 min, 5 μM: MDCK-MDR1, pH 7.4, MDCK-MDR1: Papp A-B; for Papp B→A at 120 min, 5 μM: MDCK-MDR1, pH 7.4, MDCK-MDR1: Papp B-A
# [2] = tested on: SMN protein in spinal muscular atrophy (SMA) patient fibroblasts (GM03813, Coriell); test: SMN protein assay, Mesoscale Discovery (MSD); type: cell-based, human; conditions: read-out: SMN2 protein EC50
# Description: Example A12: SMN Protein Assay
# Compounds are tested on spinal muscular atrophy (SMA) patient fibroblasts (GM03813, Coriell) at doses ranging from 2.5 μM to 0.6 nM. 7000 cells/well are seeded in 96-well plates. Compounds are incubated for 48 hours and the cells were lysed with 100 μL of lysis buffer. 20 μL of lysate is used for SMN protein measurement by Mesoscale Discovery (MSD) assay developed by PharmOptima (Michigan). A standard curve prepared with SMN protein ranging from 1 μg/ml to 19.5 pg/ml is used in each MSD plate to calculate the absolute SMN protein amount in each sample.
# [3] = tested on: mHTT protein in GM04724 (CAG 70/20) Huntington's disease patient lymphoblast cells; test: mHTT protein assay, 2B7-MW1 assay via Mesoscale Discovery (MSD); type: cell-based, human
# Description: Example A10: mHTT Protein Assay
# Compounds are tested on GM04724 (CAG 70/20) Huntington's disease patient lymphoblast cells at doses ranging from 10 μM to 0.6 nM. 4,500 cells/well are seeded in 384 well plates. One plate replica is carried out for parallel viability testing by CellTiter Glo (CTG). Compounds are incubated for 48 hours. mHTT protein levels are assessed by the 2B7-MW1 assay via Mesoscale Discovery (MSD) as previously reported (Macdonald et al., 2014). The antibody pair is comprised of previously characterized monoclonals (2B7 and MW1) interrogating two regions for HTT conformation and biological properties: the N, 17 domain and the polyQ domain (Baldo et al., 2012; Ko et., 2001). 2B7-MW1 is […] specific levels of HTT at the time of treatment. 2B7-MW1 is dependent on polyQ expansion (e.g., the higher the expansion the higher the signal) and on mHTT size (e.g., a similar polyQ will give higher signal with smaller HTT size). The viability readout is carried out by CTG according to the manufacturer's instructions.
# [4] = tested on: SMN FL and SMN Δ7 in spinal muscular atrophy (SMA) patient fibroblasts (GM03813, Coriell); test: Quantitative splicing assay (SMN), qPCR; type: cell-based, human; conditions: read-out: SMN2 Splicing FL EC50
# Description: Spinal muscular atrophy (SMA) patient fibroblasts (GM03813, Coriell) are plated in 96-well plates at 50,000 cells/well. […] Treated cells are lysed and cDNA synthesized using the Fast Advanced Cells-to-Ct kit (Thermofisher A35378) according to the manufacturer's instructions. 2 μL of each cDNA are used in qPCR reactions. […] Reactions are run in a Quant Studio 6 qPCR instrument with default settings.
# MDR1 = test: Blood-brain-barrier (BBB) penetration potential via MDCK-MDR1 permeability assay; conditions: dog, MDCK-MDR1, pH 7.4, MDCK-MDR1: Efflux, efflux ratio
# [5] = SMA patient fibroblasts GM03813, 48 hours, MSD
# [6] = GM04724 Huntington's disease patient lymphoblasts
# [7] = Homo sapiens, Fibroblast, 24 h, SMA patient fibroblasts GM03813, 24 h, qPCR
SMILES,MDCK-MDR1: % Recov A-B ([1]; A-B direction) [%],MDCK-MDR1: % Recov B-A ([1]; B-A direction) [%],"Papp A→B at 120 min, 5 μM (MDR1 (P-gp); A-B direction) [×10⁻⁶ cm/s]","Papp B→A at 120 min, 5 μM (MDR1 (P-gp); B-A direction) [×10⁻⁶ cm/s]","EC50 [2, 5] [nM]","EC50 [3, 6] [nM]","EC50 [4, 7] [nM]","efflux ratio at 120 min, 5 μM (MDR1)",further results
"CN(c1ccc(-c2cc3cnccc3cc2O)nn1)[C@@H]1C[C@H]2CC(F)(F)[C@@H](C1)N2 [Compound 126A, 7-(6-(((1S,3R,5R)-6,6-difluoro-8-azabicyclo[3.2.1]octan-3-yl)(methyl)amino)pyridazin-3-yl)isoquinolin-6-ol]",,,,,,,,,"MDCK-MDR1: % Recov A-B ([1]; A-B): 80%; MDCK-MDR1: % Recov B-A ([1]; B-A): 92%; efflux ratio at 120 min, 5 μM (MDR1 (P-gp)): 3; Papp A→B at 120 min, 5 μM (MDR1 (P-gp); A-B): 13.7 ×10⁻⁶ cm/s; Papp B→A at 120 min, 5 μM (MDR1 (P-gp); B-A): 35.3 ×10⁻⁶ cm/s; EC50 ([2]; SMA patient fibroblasts (GM03813), 48 hours): 0.01 to 15 nM; EC50 ([3]; GM04724 (CAG 70/20) Huntington's disease patient lymphoblasts): 51 to 100 nM; EC50 ([4]; Homo sapiens, Fibroblast, 24 h, SMA patient fibroblasts (GM03813), 24 h): 16 to 50 nM"
"CN(c1ccc(-c2cc3ncccc3cc2O)nn1)[C@H]1C[C@@H]2CC(F)(F)[C@H](C1)N2 [Compound 46B, 7-(6-(((1R,3S,5S)-6,6-difluoro-8-azabicyclo[3.2.1]octan-3-yl)(methyl)amino)pyridazin-3-yl)quinolin-6-ol]",68,86,32,31.6,16 to 50,101 to 500,101 to 500,,"efflux ratio at 120 min, 5 μM (MDR1 (P-gp); efflux ratio): 1"
"CN(c1ccc(-c2cc3c(F)cn(C)c(=O)c3cc2O)nn1)[C@H]1C[C@@H]2CC[C@@H](N2)[C@H]1F [Compound 54B, 4-fluoro-6-(6-(((1R,2R,3S,5S)-2-fluoro-8-azabicyclo[3.2.1]octan-3-yl)(methyl)amino)pyridazin-3-yl)-7-hydroxy-2-methylisoquinolin-1(2H)-one]",99,107,2.28,61.5,0.01 to 15,,0.01 to 15,27,
"CN(c1ccc(-c2cc(F)c(-c3ccn(C)c(=O)c3)cc2O)nn1)[C@@H]1C[C@H]2CC(F)(F)[C@@H](C1)N2 [Compound 22A, 4-(4-(6-(((1S,3R,5R)-6,6-difluoro-8-azabicyclo[3.2.1]octan-3-yl)(methyl)amino)pyridazin-3-yl)-2-fluoro-5-hydroxyphenyl)-1-methylpyridin-2(1H)-one]",86,94,1.82,80.9,0.01 to 15,,0.01 to 15,45,
"CN(c1ccc(-c2cc3cnccc3cc2O)nn1)[C@@H]1C[C@H]2CC[C@H](N2)[C@@H]1F (single isomer, unassigned) [Compound 7B]",69,89,,,0.01 to 15,51 to 100,,,"MDCK-MDR1: Papp A-B ([1]; A-B direction): 4.27 10^−6, cm/s; MDCK-MDR1: Papp B-A ([1]; B-A direction): 36.1 10^−6, cm/s; MDCK-MDR1: Efflux ([1]; efflux ratio): 8; EC50 ([4]; SMA patient fibroblasts GM03813, 24 h, qPCR): 51 to 100 nM"
"CN(c1ccc(-c2cc3ncccc3cc2O)nn1)[C@@H]1C[C@H]2CC(F)(F)[C@@H](C1)N2 [Compound 46A, 7-(6-(((1S,3R,5R)-6,6-difluoro-8-azabicyclo[3.2.1]octan-3-yl)(methyl)amino)pyridazin-3-yl)quinolin-6-ol]",68,89,31.7,29.2,16 to 50,16 to 50,501 to 10000,,"efflux ratio at 120 min, 5 μM (MDR1 (P-gp); efflux ratio): 1"
"CN(c1ccc(-c2cc3c(F)cn(C)c(=O)c3cc2O)nn1)[C@@H]1C[C@H]2CC[C@H](N2)[C@@H]1F [Compound 54A, 4-fluoro-6-(6-(((1S,2S,3R,5R)-2-fluoro-8-azabicyclo[3.2.1]octan-3-yl)(methyl)amino)pyridazin-3-yl)-7-hydroxy-2-methylisoquinolin-1(2H)-one]",108,115,3.54,82.6,0.01 to 15,,16 to 50,23,
